According to patent publication US20090209525A1, “ENABLING METHODS TO IDENTIFY ALLOSTERIC MODULATORS OF RECEPTOR ACTIVITY” (priority 2006, published 2009):
Numbering of substitutions follows the chain as printed.

How the values were obtained:
rat M1 D105A receptor = target: T1, rat M1 D105A receptor (Rattus norvegicus, UniProt P08482, D105A); assay: R-SAT functional assay, D105A mutant; assay type: cell-based; conditions: Table 3, maximum response
T1 construct: expressed in transfected cells; host or cells: NIH-3T3
T1 sequence (P08482 1-460 D105A): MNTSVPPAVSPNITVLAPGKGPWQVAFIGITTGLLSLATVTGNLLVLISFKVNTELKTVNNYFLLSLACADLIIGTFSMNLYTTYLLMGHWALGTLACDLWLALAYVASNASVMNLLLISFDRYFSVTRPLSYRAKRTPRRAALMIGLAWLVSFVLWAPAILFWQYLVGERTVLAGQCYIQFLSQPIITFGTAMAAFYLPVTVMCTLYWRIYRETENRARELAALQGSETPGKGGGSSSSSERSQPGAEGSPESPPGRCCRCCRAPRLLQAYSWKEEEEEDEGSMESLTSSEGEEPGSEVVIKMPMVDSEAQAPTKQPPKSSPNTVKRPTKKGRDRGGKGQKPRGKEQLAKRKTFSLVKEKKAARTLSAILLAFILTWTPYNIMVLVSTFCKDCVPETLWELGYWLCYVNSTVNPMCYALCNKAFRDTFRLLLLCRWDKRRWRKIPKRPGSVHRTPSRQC
Procedure: (§1) Cells are co-transfected for 18 h with DMEM containing 0.08 micrograms/ml of an expression vector for the expression of the mutant receptor and 0.3 micrograms/ml pSI-Bgal (Promega, Madison Wis.), and 0.5% v/v Polyfect (Qiagen, Valencia Calif.), as recommended by the manufacturer. On day three, the medium is replaced with DMEM containing 1% PSG, 0.5% calf serum, 2% cyto-sf3 (Kemp Biotechnologies, Frederick, Md.), and varying concentrations of the compounds to be tested. Cells are grown in a humidified atmosphere with 5% ambient CO2 for 5 days. The media is removed from the plates, and beta-galactosidase activity is measured by the addition of o-nitrophenyl -d-galactopyranoside in phosphate-buffered saline with 5% Nonidet P-40. […] The following equation is fitted to the data using GraphPad Prism software (San Diego, Calif.):
(§2) NIH-3T3 cells were grown in 96-well tissue culture plates to 70 to 80% confluence in Dulbecco's modified essential media (DMEM) supplemented with 100 units/ml penicillin, 100 micrograms/ml streptomycin, 0.3 mg/ml L-glutamine (1% PSG, GIBCO) and 10% calf serum (Sigma-Aldrich). Cells were transfected for 18 h with DMEM containing 0.08 micrograms/ml receptor DNA and 0.3 micrograms/ml pSI-Bgal (Promega, Madison Wis.), 0.5% v/v Polyfect (Qiagen, Valencia Calif.). Medium was replaced with DMEM containing 1% PSG, 0.5% calf serum, 2% cyto-sf3 (Kemp Biotechnologies, Frederick, Md.), and varying concentrations of ligand. […] Cells were grown in a humidified atmosphere with 5% ambient CO2 for 5 days. Medium was removed from the plates, and beta-galactosidase activity was measured by the addition of o-nitrophenyl -d-galactopyranoside in phosphate-buffered saline with 5% Nonidet P-40.

rat M1 L102A receptor = target: T2, rat M1 L102A receptor (Rattus norvegicus, UniProt P08482, L102A); assay: R-SAT functional assay, L102A mutant; assay type: cell-based; conditions: for Eff (%) / Shift / EC50: Table 3; for Eff (%): maximum response, normalized; for Shift: EC50 L102A divided by EC50 wild-type
T2 construct: expressed in transfected cells; host or cells: NIH-3T3
T2 sequence (P08482 1-460 L102A): T1 sequence (P08482 1-460 D105A) with L102A, A105D
Procedure: as §1, §2

rat M1 S109A receptor = target: T3, rat M1 S109A receptor (Rattus norvegicus, UniProt P08482, S109A); assay: ^3H-NMS radioligand binding, S109A; conditions: for Shift: Ki S109A divided by Ki wild-type
T3 construct: expressed in transfected cells
T3 sequence (P08482 1-460 S109A): T1 sequence (P08482 1-460 D105A) with A105D, S109A
Procedure: Briefly, cell homogenates are prepared from cells transiently or stably expressing wild type or mutant receptors. For transiently transfected cells, HEK cells are transfected with receptor of interest and cells harvested 48 hours post transfection. Cells expressing the receptor, stably or transiently, are harvested using phosphate buffered saline containing 5 mM EDTA, cells centrifuged at low speed and pellet re-suspended in binding buffer. Cell suspension is polytroned and centrifuged at 15,000×g. The pellet is resuspended in binding buffer and centrifugation repeated two more times. The washed cell homogenates are used for the competition binding assays. Competition binding assays are carried out in the presence of fixed amount of cell homogenate, fixed concentration of radioactively labeled orthosteric or allosteric ligand and varying concentrations of the cal under study using appropriate buffer. Incubations are carried out at room temperature for 2 hours. Incubations are terminated by filtration onto GF/B filters using Packard cell harvester followed by 3 washes with ice-cold buffer. Radioactivity retained on the filters is quantitated using Packard Top Count using Microscint 20 scintillation fluid. […] The membranes prepared above are incubated with a labeled ligand in 25 mM sodium phosphate, 5 mM magnesium chloride, 0.01% BSA two hours at room temperature. The binding reaction is stopped by rapid filtration onto GF/B filters. […] The pKd values (pKd=−log Kd) of the labeled ligand are calculated.
Radioligand binding assays were carried out in 25 mM sodium phosphate, 5 mM magnesium chloride, 0.01% BSA. Incubations were for two hours at room temperature, and reactions were stopped by rapid filtration onto GF/B filters.

Structure (SMILES) | Eff (%) (rat M1 D105A receptor) | Eff (%) (rat M1 L102A receptor; L102A) | IC50 (rat M1 S109A receptor) [µM] | Shift (rat M1 S109A receptor) | decrease in potency relative to wild-type (rat M1 L102A receptor; R-SAT, L102A) [fold] | Shift (rat M1 L102A receptor) | EC50 (rat M1 L102A receptor; L102A) [µM]
CCCCC1CCN(CCCC(=O)c2ccccc2C)CC1 [AC-42, 4-n-butyl-1-[4-(2-methylphenyl)-4-oxo-1-butyl] piperidine hydrogen chloride] | no resp. | 6 ± 0% | 2.51 | 0.5 | – | – | –
CCCCC1CCN(CCCN2C(=O)COc3cc(F)ccc32)CC1 [AC-260584, 4-[3-(4-Butyl-piperidin-1-yl)-propyl]-7-fluoro-4H-benzo [1,4]oxazin-3-one] | no resp. | 37 ± 7% | 1.58 | 1 | 30 | 30 | 0.501
Clc1ccc2c(c1)N=C(N1CCNCC1)c1ccccc1N2 [NDMC, 8-chloro-11-(1-piperazinyl)-5H-dibenzo [b,e] [1,4] diazepine] | no resp. | >35 ± — % | 0.631 | 4 | – | >100 | > 10
